Earlier results in patent US6368613B1, “Use of fluorocarbons for diagnosis and treatment of articular disorders” (Alliance Pharmaceutical Corp., priority 1996, dated 2002).
Marks after values point to notes of the source that are not given here.

Details: in octanol/pH 7.4 isotonic phosphate buffer at 37° C. (marked a)

Question: Which “Log Po/w” value does the source give for `CC(C)=CCN1CCC2(C)c3cc(O)ccc3CC1C2C` (centres unmarked) [pentazocin] here?
Answer: 2.18^a

Question: What about the Po/w of the same molecule?
Answer: 150

Question: With `CN(C)CCCN1c2ccccc2CCc2ccc(Cl)cc21` [clomipramine] as the molecule, how does the “Log Po/w” value read?
Answer: 3.58^a

Question: And the Po/w?
Answer: 3.80 × 10^3

Question: With `CCCCCC(=O)OCCOCn1cnc2c(=O)[nH]c(N)nc21` [hexanoyl acyclovir] as the molecule, how does the Po/w read?
Answer: 8.58

Question: What does the source list for `CCc1cc2c(s1)N(C)C(=O)CN=C2c1ccccc1Cl` [clotiazepam]?
Answer: Log Po/w: 3.49^a; Po/w: 3.06 × 10^3

Question: With `OC(CCN1CCCCC1)(c1ccccc1)C1CCCCC1` (centres unmarked) [trihexyphenidyl] as the molecule, how does the “Log Po/w” value read?
Answer: 3.17^a

Question: And the Po/w?
Answer: 1.47 × 10^3

Question: For `CC(CN1c2ccccc2Sc2ccccc21)N(C)C` (centres unmarked) [promethazine], which “Log Po/w” value is on record?
Answer: 3.10^a

Question: And the Po/w?
Answer: 1.27 × 10^3

Question: With `CCCCC(=O)OCCOCn1cnc2c(=O)[nH]c(N)nc21` [valeryl acyclovir] as the molecule, how does the Po/w read?
Answer: 2.01

Same assay, conditions: octanol/water partition coefficient

Question: With `Clc1cccc(Cl)c1N=C1NCCN1` [H-clonidine, clonidine] as the molecule, how does the “Log Po/w” value read?
Answer: 1.4

Question: And the Po/w?
Answer: 25.1

Question: What does the source list for `CCCCNc1ccc(C(=O)OCCN(C)C)cc1` [tetracaine]?
Answer: Log Po/w: 1.90; Po/w: 79.4

Question: Which “Log Po/w” value does the source give for `CC(=O)[C@@]1(O)CC[C@H]2[C@@H]3C[C@H](C)C4=CC(=O)C=C[C@]4(C)[C@@]3(F)[C@@H](O)C[C@@]21C` [H -fluorornetholone, fluorornetholone] here?
Answer: 2.1

Question: What about the Po/w of the same molecule?
Answer: 1.26 × 10^2

Question: Which “Log Po/w” value does the source give for `CC/C(=C(/CC)c1ccc(O)cc1)c1ccc(O)cc1` [H -diethylstilbesterol, diethylstilbesterol] here?
Answer: 5.1

Question: What about the Po/w of the same molecule?
Answer: 1.26 × 10^5

Question: Which results are given for `CCCCN1CCCCC1C(=O)Nc1c(C)cccc1C` (centres unmarked) [bupivacaine]?
Answer: Log Po/w: 1.45; Po/w: 28.2

Question: With `FC(F)(F)C(Cl)Br` (centres unmarked) [halothane] as the molecule, how does the “Log Po/w” value read?
Answer: 2.30

Question: What about the Po/w of the same molecule?
Answer: 2.00 × 10^2

Question: With `CCCCC(CC)COC(=O)c1ccc(N(C)C)cc1` (centres unmarked) [C-padimate-o, padimate-o] as the molecule, how does the “Log Po/w” value read?
Answer: 6.6

Question: What about the Po/w of the same molecule?
Answer: 3.98 × 10^6

Question: Which “Log Po/w” value does the source give for `O=C1CN=C(c2ccccc2)c2cc([N+](=O)[O-])ccc2N1` [nitrazepam] here?
Answer: 2.21

Question: What about the Po/w of the same molecule?
Answer: 162

Question: Which “Log Po/w” value does the source give for `CCCCCCCCCCCC(=O)N1CCCCCC1` [C-hexamethylenelauramide, hexamethylenelauramide] here?
Answer: 7.3

Question: And the Po/w?
Answer: 2.00 × 10^7

Question: What does the source list for `C[C@]12CC[C@H]3[C@@H](CCC4=CC(=O)CC[C@@]43C)[C@@H]1CC[C@@H]2O` [C-testosterone, testosterone]?
Answer: Log Po/w: 3.3; Po/w: 2.00 × 10^3

Question: With `COc1ccc(C(=O)CC(=O)c2ccc(C(C)(C)C)cc2)cc1` [H-parsol 1789, parsol 1789] as the molecule, how does the “Log Po/w” value read?
Answer: 6.7

Question: And the Po/w?
Answer: 5.0 × 10^6

Question: With `c1ccc2cc3ccccc3cc2c1` [C-anthracene, anthracene] as the molecule, how does the “Log Po/w” value read?
Answer: 4.5

Question: What about the Po/w of the same molecule?
Answer: 3.16 × 10^4

Same assay, conditions: pH 7.4

Question: Which “Log Po/w” value does the source give for `CCCCCC(=O)OCCOCn1cnc2c(=O)[nH]c(N)nc21` [hexanoyl acyclovir] here?
Answer: 0.93^a

Question: Which “Log Po/w” value does the source give for `CCCCC(=O)OCCOCn1cnc2c(=O)[nH]c(N)nc21` [valeryl acyclovir] here?
Answer: 0.30^a
